ChEMBL document CHEMBL1201862, “PubChem BioAssay data set” (2004)
Active and inactive are the calls of the source.

Key:
[1] = potency of ADAM10 substrate cleavage blockers – biochemical, QFRET, dose response (AID 743254);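 further: ADAM10 enzyme with the DM2 quenched FRET peptide as substrate; EDANS fluorescence gain as the protease cuts the substrate; inhibitor potency against ADAM10 proteolytic activity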
Estrogen receptor = target: T1, Estrogen receptor (Homo sapiens, UniProt P03372);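 further: potency for inhibiting coactivator peptide recruitment to the receptor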
T1 sequence (P03372 whole entry): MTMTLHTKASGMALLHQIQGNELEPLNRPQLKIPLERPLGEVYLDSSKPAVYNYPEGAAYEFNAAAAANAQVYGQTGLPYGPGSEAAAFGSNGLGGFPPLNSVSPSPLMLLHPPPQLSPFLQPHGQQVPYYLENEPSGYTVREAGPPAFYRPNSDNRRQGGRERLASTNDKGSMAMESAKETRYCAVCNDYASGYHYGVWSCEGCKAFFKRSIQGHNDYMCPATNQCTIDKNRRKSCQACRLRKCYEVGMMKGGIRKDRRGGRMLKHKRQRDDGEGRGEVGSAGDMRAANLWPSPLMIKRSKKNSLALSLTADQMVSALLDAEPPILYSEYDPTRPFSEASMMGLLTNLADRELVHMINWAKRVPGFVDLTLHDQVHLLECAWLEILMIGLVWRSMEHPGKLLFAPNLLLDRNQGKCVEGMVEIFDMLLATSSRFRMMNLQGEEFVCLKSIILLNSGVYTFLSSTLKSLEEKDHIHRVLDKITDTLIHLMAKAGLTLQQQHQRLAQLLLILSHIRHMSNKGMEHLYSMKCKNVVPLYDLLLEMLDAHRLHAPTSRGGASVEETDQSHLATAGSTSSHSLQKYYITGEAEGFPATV

Cytochrome P450 2C9 = Cytochrome P450 2C9 (Homo sapiens, UniProt P11712); settings: Potency
Sequence of Cytochrome P450 2C9 (P11712 whole entry, the tested form may be a part): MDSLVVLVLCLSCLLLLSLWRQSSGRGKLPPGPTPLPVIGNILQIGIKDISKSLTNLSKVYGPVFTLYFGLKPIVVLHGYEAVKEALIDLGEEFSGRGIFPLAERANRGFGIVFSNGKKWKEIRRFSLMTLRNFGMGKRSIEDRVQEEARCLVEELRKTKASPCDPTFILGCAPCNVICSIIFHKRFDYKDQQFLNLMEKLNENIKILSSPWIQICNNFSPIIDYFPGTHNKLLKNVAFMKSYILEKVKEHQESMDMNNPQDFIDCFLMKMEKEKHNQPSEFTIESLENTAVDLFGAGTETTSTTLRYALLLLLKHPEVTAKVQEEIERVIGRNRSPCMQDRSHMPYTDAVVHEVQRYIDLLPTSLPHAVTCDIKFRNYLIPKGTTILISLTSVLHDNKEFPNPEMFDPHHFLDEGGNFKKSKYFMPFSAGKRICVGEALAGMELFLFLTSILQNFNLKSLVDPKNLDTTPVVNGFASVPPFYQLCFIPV

[2] = blockers of HIV-1 envelope-mediated cell-cell fusion – cherry-pick, dose response (AID 652057); assay type: functional, cell-based
[3] = off-target signal loss in HeLa-CEM21 co-culture – HeLa F-luc CTL cells, cherry-picked, counter-screen for HIV-1 Env fusion inhibitor project, dose response (AID 652040); assay type: functional, cell-based;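 further: potency for signal decrease marking cytotoxic or nonspecific inhibition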
[4] = blockers of HIV-1 ZM109 envelope-driven cell-cell fusion – HeLa effector, CEM target cells, luciferase, cherry-pick, dose response (AID 652058); assay type: functional, cell-based;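 further: luciferase signal from HIV-1 Env mediated cell-cell fusion of effector and target cells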
[5] = HIV-1 AD8 envelope cell-cell fusion blockers – cherry-pick, dose response (AID 652062); assay type: functional, cell-based;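 further: luciferase signal from cell-cell fusion driven by HIV-1 clade B AD8 Env; potency is for inhibitors of fusion seen as a drop in luminescence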
[6] = target: T2, Low molecular weight phosphotyrosine protein phosphatase (Homo sapiens, UniProt P24666); assay type: functional; settings: read-out: IC50_Mean
T2 sequence (P24666 whole entry): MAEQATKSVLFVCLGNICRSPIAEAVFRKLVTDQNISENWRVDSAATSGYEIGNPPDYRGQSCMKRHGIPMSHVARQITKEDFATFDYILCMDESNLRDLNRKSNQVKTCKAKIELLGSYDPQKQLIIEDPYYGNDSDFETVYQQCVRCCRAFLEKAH

[7] = target: T3, Calpain-2 catalytic subunit (Sus scrofa, UniProt P43367); test: m-calpain protease blockers, concentration series – biochemical, fluorogenic peptide substrate, dose response (AID 1420); assay type: functional
T3 sequence (P43367 whole entry): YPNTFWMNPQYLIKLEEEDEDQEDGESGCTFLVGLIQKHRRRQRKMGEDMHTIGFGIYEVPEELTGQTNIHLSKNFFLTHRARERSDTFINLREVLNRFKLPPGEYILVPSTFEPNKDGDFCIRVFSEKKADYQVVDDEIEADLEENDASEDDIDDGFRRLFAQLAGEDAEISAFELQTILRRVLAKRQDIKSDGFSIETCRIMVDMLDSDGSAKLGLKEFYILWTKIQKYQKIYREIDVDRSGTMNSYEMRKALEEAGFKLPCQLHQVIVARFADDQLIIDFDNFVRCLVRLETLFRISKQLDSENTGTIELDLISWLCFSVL

[8] = target: T2, Low molecular weight phosphotyrosine protein phosphatase; assay type: functional; settings: read-out: IC50_Mean; remark: listed apart in the source
[9] = target: T4, DNA repair and recombination protein RAD54-like (Homo sapiens, UniProt Q92698); test: RAD54 Holliday junction migration blockers – biochemical, fluorescence, cherry-picked samples, dose series, confirmation (AID 651657); assay type: functional
T4 sequence (Q92698 whole entry): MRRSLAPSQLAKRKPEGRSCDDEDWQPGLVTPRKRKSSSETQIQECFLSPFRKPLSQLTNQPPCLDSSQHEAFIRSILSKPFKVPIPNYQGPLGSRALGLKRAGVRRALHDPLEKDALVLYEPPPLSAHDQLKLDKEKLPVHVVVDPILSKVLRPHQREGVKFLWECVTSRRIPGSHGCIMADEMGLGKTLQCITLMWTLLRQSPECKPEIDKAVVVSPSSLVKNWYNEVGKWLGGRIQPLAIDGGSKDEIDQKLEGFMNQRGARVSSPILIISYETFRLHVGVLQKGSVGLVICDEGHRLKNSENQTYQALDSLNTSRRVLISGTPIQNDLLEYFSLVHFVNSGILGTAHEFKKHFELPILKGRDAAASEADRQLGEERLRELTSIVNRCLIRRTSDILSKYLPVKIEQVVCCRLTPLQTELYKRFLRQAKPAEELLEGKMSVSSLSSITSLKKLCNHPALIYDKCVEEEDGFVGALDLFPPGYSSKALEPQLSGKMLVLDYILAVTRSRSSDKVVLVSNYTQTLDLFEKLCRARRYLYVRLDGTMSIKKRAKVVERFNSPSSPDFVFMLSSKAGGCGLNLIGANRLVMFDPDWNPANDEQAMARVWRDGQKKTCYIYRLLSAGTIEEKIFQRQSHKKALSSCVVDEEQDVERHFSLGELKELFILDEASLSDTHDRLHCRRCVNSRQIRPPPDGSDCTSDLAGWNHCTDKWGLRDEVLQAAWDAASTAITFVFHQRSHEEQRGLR

[10] = blockade of melanocortin 4 receptor signaling – cell-based, plate reader, cherry pick, counter-screen for LGR2 antagonist project, dose response (AID 743444); assay type: functional;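 further: transfected HEK 293 cells stimulated with alpha-MSH peptide; potency of inhibitors of the alpha-MSH evoked signal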
Protein skinhead-1 = target: T5, Protein skinhead-1 (Caenorhabditis elegans, UniProt P34707); assay type: functional
T5 sequence (P34707 whole entry): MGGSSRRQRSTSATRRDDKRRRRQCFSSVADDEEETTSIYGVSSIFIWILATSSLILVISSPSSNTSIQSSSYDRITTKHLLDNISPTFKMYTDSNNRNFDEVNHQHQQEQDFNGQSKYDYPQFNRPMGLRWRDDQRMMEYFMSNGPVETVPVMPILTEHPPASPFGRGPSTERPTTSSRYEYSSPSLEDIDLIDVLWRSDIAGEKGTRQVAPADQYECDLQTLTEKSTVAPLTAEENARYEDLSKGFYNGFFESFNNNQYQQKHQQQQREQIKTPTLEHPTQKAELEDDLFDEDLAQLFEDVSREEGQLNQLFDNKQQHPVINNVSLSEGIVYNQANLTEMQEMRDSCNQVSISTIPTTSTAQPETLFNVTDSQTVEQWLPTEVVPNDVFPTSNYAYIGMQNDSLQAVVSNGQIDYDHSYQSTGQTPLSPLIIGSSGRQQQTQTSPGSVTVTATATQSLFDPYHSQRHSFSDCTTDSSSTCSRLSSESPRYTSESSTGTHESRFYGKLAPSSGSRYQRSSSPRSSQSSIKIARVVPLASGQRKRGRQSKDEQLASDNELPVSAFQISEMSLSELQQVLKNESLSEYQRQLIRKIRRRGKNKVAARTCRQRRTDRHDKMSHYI

[11] = blockers of bursicon-stimulated LGR2 cAMP reporter – cell-based, HEK293, CRE-luciferase reporter, cherry pick, set 2, dose response (AID 743343); assay type: functional;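 further: transfected cells were stimulated with diluted bursicon conditioned medium after compound addition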
[12] = viability loss in HEK293 cells – cell-based, plate reader, cherry-picked samples, cytotoxicity control, dose response (AID 743446); assay type: functional
[13] = A549 cell cytotoxicity, dose response, cytotoxicity control, plate reader, cherry-pick, antagonist series (AID 743412); assay type: functional, cell-based
[14] = target: Disintegrin and metalloproteinase domain-containing protein 17 (Homo sapiens, UniProt P78536); test: inhibition of ADAM17 substrate cleavage – biochemical, quenched FRET substrate, counter-screen for ADAM10 exosite inhibitor project, dose response (AID 743253)
Sequence of Disintegrin and metalloproteinase domain-containing protein 17 (P78536 whole entry, the tested form may be a part): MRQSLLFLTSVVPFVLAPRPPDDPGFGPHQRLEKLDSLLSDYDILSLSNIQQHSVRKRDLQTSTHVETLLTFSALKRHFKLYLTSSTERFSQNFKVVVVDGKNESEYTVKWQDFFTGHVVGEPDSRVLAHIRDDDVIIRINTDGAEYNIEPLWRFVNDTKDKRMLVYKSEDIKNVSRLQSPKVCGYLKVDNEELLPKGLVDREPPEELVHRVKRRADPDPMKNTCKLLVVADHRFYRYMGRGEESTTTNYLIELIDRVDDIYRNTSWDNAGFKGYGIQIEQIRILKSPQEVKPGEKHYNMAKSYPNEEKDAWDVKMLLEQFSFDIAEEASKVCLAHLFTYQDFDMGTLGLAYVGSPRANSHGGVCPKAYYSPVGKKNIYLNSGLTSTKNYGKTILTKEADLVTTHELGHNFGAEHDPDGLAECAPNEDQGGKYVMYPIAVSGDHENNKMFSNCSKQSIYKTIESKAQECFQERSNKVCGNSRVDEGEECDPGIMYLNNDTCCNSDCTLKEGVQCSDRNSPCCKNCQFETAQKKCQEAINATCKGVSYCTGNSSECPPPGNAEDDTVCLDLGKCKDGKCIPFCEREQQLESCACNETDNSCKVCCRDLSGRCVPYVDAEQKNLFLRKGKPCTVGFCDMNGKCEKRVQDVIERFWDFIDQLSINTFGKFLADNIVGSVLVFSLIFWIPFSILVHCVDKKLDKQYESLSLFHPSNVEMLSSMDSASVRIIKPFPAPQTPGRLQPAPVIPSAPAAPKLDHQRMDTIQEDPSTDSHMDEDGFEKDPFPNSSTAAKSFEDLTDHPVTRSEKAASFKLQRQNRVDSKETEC

Cytochrome P450 2D6 = Cytochrome P450 2D6 (Homo sapiens, UniProt P10635);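 further: CYP2D6 member of a cytochrome P450 panel assay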
Sequence of Cytochrome P450 2D6 (P10635 whole entry): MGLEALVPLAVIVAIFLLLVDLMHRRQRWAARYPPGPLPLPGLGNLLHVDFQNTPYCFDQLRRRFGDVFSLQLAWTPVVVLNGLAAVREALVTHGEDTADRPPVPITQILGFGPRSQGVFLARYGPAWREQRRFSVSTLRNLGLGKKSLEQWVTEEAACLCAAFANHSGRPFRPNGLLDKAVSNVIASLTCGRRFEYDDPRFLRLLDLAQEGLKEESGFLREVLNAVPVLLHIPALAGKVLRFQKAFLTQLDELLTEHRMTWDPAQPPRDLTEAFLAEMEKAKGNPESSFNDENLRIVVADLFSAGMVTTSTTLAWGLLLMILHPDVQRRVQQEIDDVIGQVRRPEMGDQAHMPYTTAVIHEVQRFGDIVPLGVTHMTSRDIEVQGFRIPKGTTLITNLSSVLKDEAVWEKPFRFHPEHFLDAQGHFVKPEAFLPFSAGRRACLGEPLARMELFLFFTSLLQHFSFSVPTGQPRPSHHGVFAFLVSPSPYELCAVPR

[15] = target: T6, Mannose-6-phosphate isomerase (Homo sapiens, UniProt P34949); test: MPI inhibition at elevated mannose 6-phosphate – biochemical, fluorescence intensity, high mannose 6-phosphate, primary screen (AID 1220)
T6 sequence (P34949 whole entry): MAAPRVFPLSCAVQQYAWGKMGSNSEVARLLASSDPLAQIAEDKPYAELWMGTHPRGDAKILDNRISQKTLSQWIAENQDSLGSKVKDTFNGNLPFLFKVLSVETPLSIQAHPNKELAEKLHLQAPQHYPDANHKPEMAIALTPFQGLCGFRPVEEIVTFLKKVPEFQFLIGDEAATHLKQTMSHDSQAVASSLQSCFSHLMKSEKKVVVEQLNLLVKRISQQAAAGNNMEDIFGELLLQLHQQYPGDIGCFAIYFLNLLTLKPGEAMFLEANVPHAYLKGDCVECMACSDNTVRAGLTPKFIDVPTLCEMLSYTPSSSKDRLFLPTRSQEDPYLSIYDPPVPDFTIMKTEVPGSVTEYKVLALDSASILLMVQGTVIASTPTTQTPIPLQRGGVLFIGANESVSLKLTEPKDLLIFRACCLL

Cytochrome P450 3A4 = Cytochrome P450 3A4 (Homo sapiens, UniProt P08684);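 further: CYP3A4 tested as one member of a cytochrome P450 panel screen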
Sequence of Cytochrome P450 3A4 (P08684 whole entry): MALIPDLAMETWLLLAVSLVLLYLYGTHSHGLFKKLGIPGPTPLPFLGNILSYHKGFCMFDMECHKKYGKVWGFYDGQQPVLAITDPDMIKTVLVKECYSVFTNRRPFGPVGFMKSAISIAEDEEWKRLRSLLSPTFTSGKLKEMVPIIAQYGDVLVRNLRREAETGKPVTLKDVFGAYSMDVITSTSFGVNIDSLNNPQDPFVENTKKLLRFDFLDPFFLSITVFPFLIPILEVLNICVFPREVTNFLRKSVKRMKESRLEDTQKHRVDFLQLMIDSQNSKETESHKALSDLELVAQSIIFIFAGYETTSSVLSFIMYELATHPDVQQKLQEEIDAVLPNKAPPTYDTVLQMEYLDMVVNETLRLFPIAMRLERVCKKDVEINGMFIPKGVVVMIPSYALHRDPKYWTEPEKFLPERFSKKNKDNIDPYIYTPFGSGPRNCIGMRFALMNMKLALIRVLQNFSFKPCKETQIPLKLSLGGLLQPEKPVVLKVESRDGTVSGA

[16] = target: Eukaryotic translation initiation factor 4E (Mus musculus, UniProt P63073); test: blockers of eIF4G binding by eIF4E – biochemical, TR-FRET, dose response (AID 855); assay type: functional;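 further: potency for disrupting eIF4E binding to eIF4GI seen as loss of FRET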
Sequence of Eukaryotic translation initiation factor 4E (P63073 whole entry): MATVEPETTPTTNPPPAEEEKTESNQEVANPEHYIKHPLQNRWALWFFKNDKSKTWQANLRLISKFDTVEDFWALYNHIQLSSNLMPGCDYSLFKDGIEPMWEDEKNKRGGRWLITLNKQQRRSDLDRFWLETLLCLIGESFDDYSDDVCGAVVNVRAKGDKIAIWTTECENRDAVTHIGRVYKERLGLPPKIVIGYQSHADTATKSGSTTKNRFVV

[17] = Dd2 parasite growth inhibition in erythrocytes – SYBR Green, dry powder samples, set 9, dose response (AID 1159568); assay type: functional, cell-based
[18] = intracellular Trypanosoma cruzi inhibitors in host cells – cell-based, plate reader, cherry-pick samples, set 3, dose response (AID 651818); assay type: functional;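 further: compounds incubated with infected cells for about four days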
[19] = activation of miR-122 Renilla sensor silencing – cell-based, Huh7 psiCHECK-miR122, Renilla luciferase, cherry-picked, dose response (AID 651956); assay type: functional;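 further: huh7 hepatoma cells stably carrying a psiCHECK-2 miR-122 sensor plasmid; renilla luciferase signal reporting endogenous miR-122 activity after 48 h compound exposure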

CC(C)(C)c1ccc(-c2cc(-c3ccccc3O)[nH]n2)cc1
IC50 [1]: 14.9 µM (inactive)

Cc1ccc2c(c1)N(CC(=O)NC1CCCc3ccccc31)C(=O)CO2 (stereo not given)
IC50 (Estrogen receptor): > 50 µM (not active)

CC(C)C[C@@H](CC(=O)N[C@@H](CCC(=O)O)CC(=O)O)NC(=O)[C@@H]1CNCC[C@H]1NC(=O)C[C@@H](NC(=O)C[C@H](CO)NC(=O)[C@@H]1CNCC[C@H]1N)C(C)C
AC50 (Cytochrome P450 2C9): 6.31 µM (inconclusive)

Cc1cc(C)c(S(=O)(=O)N2CCN=C2c2ccccc2)cc1C
AC50 [2]: 5.08 µM (active)
AC50 [3]: 10.1 µM (active)
AC50 [4]: 7.73 µM (active)
AC50 [5]: 7.94 µM (active)

COc1ccc(/N=c2\[nH]c(=O)c3cc([N+](=O)[O-])ccc3s2)cc1
IC50 [6]: 13.4 µM (active)
IC50 [7]: > 50 µM (not active)
IC50 [8]: 15.5 µM (active)

c1ccc(-c2nc(NCCCN3CCOCC3)c3ccccc3n2)cc1
IC50 [6]: 17 µM (active)
IC50 [8]: 37.2 µM (inactive)
AC50 [9]: 32.4 µM (active)

CCc1ccc2oc(-c3ccc(N)cc3)nc2c1
AC50 [10]: 4.19 µM (active)
IC50 (Protein skinhead-1): 46.2 µM (active)
AC50 [11]: 7.42 µM (active)
AC50 [12]: > 52 µM (inactive)
AC50 [13]: > 52 µM (inactive)

C=C(C)COc1ccc(-c2[nH]nc(C)c2Oc2ccccc2OC)c(O)c1
IC50 [1]: 8.72 µM (active)

C=C(C)COc1ccc(-c2n[nH]c(C)c2Oc2ccccc2OC)c(O)c1
IC50 [14]: > 69.5 µM (inactive)

CCOCCCNC(=O)c1cnc2ccc(S(=O)(=O)Nc3cccc(OC)c3)cc2c1O
IC50 (Estrogen receptor): 35.2 µM (not active)

O=[N+]([O-])c1ccc2c(c1NC1CCCCC1)=NC1(CCCCC1)[N+]=2[O-]
AC50 (Cytochrome P450 2D6): 14.1 µM (inconclusive)
IC50 [15]: > 50 µM (not active)
AC50 (Cytochrome P450 3A4): 3.16 µM (inconclusive)

CC(=O)O[C@@H]1CC[C@]2(C)[C@H]3CC[C@]4(C)[C@H](C[C@H]5CCCC[C@@]54C(C)=O)[C@@H]3CC(=O)[C@@]2(O)C1
AC50 (Cytochrome P450 2C9): 25.1 µM (inconclusive)

Cc1ccccc1NC(=S)Nc1cccc2cnccc12
IC50 [15]: > 50 µM (not active)

CC[C@@]12C(=O)N(c3cccc(F)c3)C(=O)N1[C@H](c1ccc(Cl)cc1)[C@@H]1C(=O)N(C3CCCCC3)C(=O)[C@@H]12
AC50 [2]: < 0.26 µM (active)
AC50 [3]: 0.416 µM (active)
AC50 [4]: < 0.26 µM (active)
AC50 [5]: 0.329 µM (active)

C[C@@]12C(=O)N(c3cccc(Cl)c3)C(=O)N1[C@H](c1ccc(Cl)cc1)[C@@H]1C(=O)N(C3CCCCC3)C(=O)[C@@H]12
AC50 [2]: 1.21 µM (active)
AC50 [3]: 2.26 µM (active)
AC50 [4]: 1.31 µM (active)
AC50 [5]: 11.6 µM (active)

COc1ccc(-c2cnnc(N/N=C/c3ccc(-c4ccc([N+](=O)[O-])cc4)o3)n2)cc1
IC50 [6]: 6.62 µM (active)
IC50 [8]: > 80 µM (inactive)
IC50 [16]: 50 µM (inactive)

C[C@H](CO)N1C[C@H](C)[C@H](CN(C)C(=O)Nc2ccc(C(F)(F)F)cc2)Oc2c(NC(=O)c3ccc(-c4nccs4)cc3)cccc2C1=O
AC50 [17]: 5 µM (active)
AC50 [18]: 4.22 µM (active)

C[C@H](CO)N1C[C@H](C)[C@H](CN(C)C(=O)NC2CCCCC2)Oc2ncc(-c3cccc(C(F)(F)F)c3)cc2C1=O
AC50 [19]: 37.8 µM (active)

CN(C)c1ccc(-c2nc3cc(N)ccc3o2)cc1
AC50 [10]: 3.58 µM (active)
AC50 [11]: 2.28 µM (active)
AC50 [12]: > 52 µM (inactive)

N#Cc1cccc(-c2ccc([C@@H]3[C@@H]4CN(C(=O)c5ccccn5)C[C@H]3N4)cc2)c1
AC50 [10]: 13.2 µM (active)
AC50 [11]: 11.1 µM (active)
AC50 [12]: > 52 µM (inactive)
AC50 [13]: 15 µM (active)

O=C(N/N=C/c1cn(-c2cccs2)nc1-c1ccccc1)c1ccccc1Cl
IC50 [1]: > 69.5 µM (inactive)
IC50 [14]: > 69.5 µM (inactive)

CC(C)[C@H]1COCn2nncc2CCCC(=O)N1
AC50 [17]: > 39 µM (inactive)
